These are literature values, as cited in patent US20250333447A1, “CHIMERIC SMALL MOLECULES FOR LABELING PROTEINS WITH IMMUNOGENIC MOIETIES AND METHODS OF USE THEREOF” (The Brigham and Women's Hospital, Inc., priority 2022, published 2025).

In series [1] the target is PSMA (Homo sapiens, UniProt Q04609).
Series [2] relates to HSP90. To be noted: cell free assay.

Sequence of PSMA (Q04609 whole entry, species assumed): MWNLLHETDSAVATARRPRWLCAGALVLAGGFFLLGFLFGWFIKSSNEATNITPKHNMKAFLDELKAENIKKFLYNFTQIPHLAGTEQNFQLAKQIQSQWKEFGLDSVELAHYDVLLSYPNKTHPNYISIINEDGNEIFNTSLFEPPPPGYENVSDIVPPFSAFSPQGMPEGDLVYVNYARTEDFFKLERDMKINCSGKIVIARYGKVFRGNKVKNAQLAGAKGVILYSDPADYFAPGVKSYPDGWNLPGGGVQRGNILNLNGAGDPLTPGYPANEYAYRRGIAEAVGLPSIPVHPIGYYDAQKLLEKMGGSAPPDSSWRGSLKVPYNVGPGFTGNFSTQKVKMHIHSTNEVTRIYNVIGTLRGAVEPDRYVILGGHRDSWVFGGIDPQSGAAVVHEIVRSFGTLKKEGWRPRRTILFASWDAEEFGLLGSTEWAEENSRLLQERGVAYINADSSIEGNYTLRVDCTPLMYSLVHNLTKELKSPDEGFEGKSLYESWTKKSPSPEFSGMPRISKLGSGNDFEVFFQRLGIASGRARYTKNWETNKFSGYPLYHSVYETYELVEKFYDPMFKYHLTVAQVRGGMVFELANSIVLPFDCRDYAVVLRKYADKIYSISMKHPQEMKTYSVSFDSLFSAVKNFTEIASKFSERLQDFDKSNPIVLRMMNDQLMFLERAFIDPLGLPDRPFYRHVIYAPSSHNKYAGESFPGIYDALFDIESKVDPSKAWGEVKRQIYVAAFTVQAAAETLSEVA

On to `O=C(O)CC[C@H](NC(=O)N[C@@H](CCC(=O)O)C(=O)O)C(=O)O` [DUPA], for which, in series [1], the Ki is 8 nM.
Turning to `CO[C@H]1/C=C\C=C(/C)C(=O)NC2=CC(=O)C(NCCN(C)C)=C(C[C@@H](C)C[C@H](OC)[C@H](O)[C@@H](C)/C=C(\C)[C@@H]1OC(N)=O)C2=O` [Alvespimycin], the IC50 in series [2] is 62 nM.
